The test deals with T1, primary mouse cortical neurons.
T1 construct: primary cortical neurons, DIV 10
The test is described as follows: cells. As to conditions: Cortical neurone, 20 h, read-out: % inhibition, inhibition of NMDA-induced cell death (protection score), 30 min pre-treatment. More on the design: Protection from NMDA-induced (30 uM, 10 min) neuronal death; Hoechst nuclear morphology by automated microscopy. The protocol:
On DIV 10, compounds were applied to the cells reaching an end concentration of 10 μM. Cells were incubated for 30 min at 37 °C, 5% CO2 before adding NMDA (30 μM). Cells were incubated for another 10 min in the incubator, then washed twice with defined minimal medium containing 10 μM of the respective compound and incubated for an additional 20 h before readout. Untreated (no NMDA) and NMDA-only stimulated wells were treated with 0.1% DMSO. […] After 15 min of incubation at room temperature, cells were washed twice with phosphate buffered saline. […] Dead neurons were identified by amorphous or shrunken nuclei using CellProfiler and CellProfiler Analyst software. For all cell death analyses the experimental unit (N) is defined as an independent experiment using an independent neuronal preparation. For each independent experiment, data from 3 replicate wells (i.e., from 36 images), representing an average of 3000 cells was analyzed per condition. The survival rate S was calculated by dividing the number of living cells by the total number of cells. The survival rate was then used to calculate the protection score according to Scompound−Svehicle/Suntreated−Svehicle×100=%protection , where ‘compound’ refers to compound + NMDA treatment, ‘vehicle’ refers to vehicle + NMDA treatment, and ‘untreated’ refers to DMSO control. […] As a proof of principle, we next used our assay to screen two commercially available drug libraries. In these screens, primary cortical cells were incubated with test compounds at 10 μM concentration for 30 min before addition of 30 μM NMDA. After 10 min NMDA treatment, cells were washed with fresh medium and kept in the presence of test compounds for 20 h until assessment of cell viability. […] This library covers structurally diverse drugs from several fields such as oncology, cardiology, immunology, and neurology/psychiatry.

Structures are written as SMILES. Where a name gives a salt, the structure may show the parent alone.

Regarding `Cc1cccc(C)c1NC(=O)CN1CCCC1=O` [Nefiracetam (Translon)], the inhibition (usually the drop in the measured response relative to a control, in per cent) at 10 µM turned out to be 7.17%.

Regarding `Cc1ccccc1N1C(=O)c2cc(S(N)(=O)=O)c(Cl)cc2NC1C` (stereo not drawn) [Metolazone (Zaroxolyn)], the inhibition at 10 µM was determined as 27.9%. For `CCC(C)(C)c1ccc(CC(C)CN2C[C@@H](C)O[C@@H](C)C2)cc1` (stereo partly drawn) [Amorolfine Hydrochloride], the inhibition at 10 µM is -45.8%. The value for `Nc1ccc(S(N)(=O)=O)cc1` [Sulfanilamide] was 17.7%. The value for `COc1nc(N)nc2c1ncn2[C@@H]1O[C@H](CO)[C@@H](O)[C@@H]1O` [Nelarabine (Arranon)] was -9.06%; that for `CC[C@H](CC[C@@H](C)[C@H]1CC[C@H]2[C@@H]3CC=C4C[C@@H](O)CC[C@]4(C)[C@H]3CC[C@]12C)C(C)C` [β-Sitosterol] was -0.368%. In the case of `NC(=O)c1ncn([C@@H]2O[C@H](CO)[C@@H](O)[C@H]2O)c1N` [Acadesine], the inhibition at 10 µM is 4.99%. With `Cc1ccc(-n2[nH]c(C)c(N=Nc3cccc(-c4cccc(C(=O)O)c4)c3O)c2=O)cc1C` [Eltrombopag (SB-497115-GR)], the inhibition at 10 µM came out at 93.9%. On to `CNC(=C[N+](=O)[O-])NCCSCc1csc(CN(C)C)n1` [Nizatidine], for which the inhibition at 10 µM was -2.67%.

Take `CN(C)C(=O)Oc1ccc[n+](C)c1` [Pyridostigmine Bromide (Mestinon)]: the inhibition at 10 µM came to 35.3%. Then `Cc1nc2n(c(=O)c1CCN1CCC(c3noc4cc(F)ccc34)CC1)CCCC2` [Risperidone (Risperdal)], with 23.7%; and `COC1=C(OC)C(=O)C(C/C=C(\C)CC/C=C(\C)CC/C=C(\C)CC/C=C(\C)CC/C=C(\C)CC/C=C(\C)CC/C=C(\C)CC/C=C(\C)CC/C=C(\C)CCC=C(C)C)=C(C)C1=O` [Coenzyme Q10(CoQ10)], with 9.82%; and `CC(C)=CCC[C@]1(C)C=Cc2c(O)c3c(c(CC=C(C)C)c2O1)O[C@]12C(=C[C@@H]4C[C@H]1C(C)(C)O[C@@]2(C/C=C(/C)C(=O)O)C4=O)C3=O` [Gambogic Acid], with 14.8%. Then `CCOc1nc2cccc(C(=O)OC(C)OC(=O)OC3CCCCC3)c2n1Cc1ccc(-c2ccccc2-c2nn[nH]n2)cc1` (stereo not drawn) [Candesartan cilexetil (Atacand)], with 7.42%. Then `N[C@@H](Cc1ccc(O)c(O)c1)C(=O)O` [Levodopa (Sinemet)], with 0.209%. Turning to `Cc1cnc(C(=O)NCCc2ccc(S(=O)(=O)NC(=O)NC3CCCCC3)cc2)cn1` [Glipizide (Glucotrol)], the inhibition at 10 µM was 9.36%. Then `N#CC1(c2ccc(NC(=O)c3cccnc3NCc3ccncc3)cc2)CCCC1` [Apatinib (YN968D1)], with -0.459%. Consider `CC/C(=C(\c1ccccc1)c1ccc(OCCN(C)C)cc1)c1ccccc1` [Tamoxifen Citrate (Nolvadex)], for which the inhibition at 10 µM was -8.21%. Then `C[C@@H](c1ncncc1F)[C@](O)(Cn1cncn1)c1ccc(F)cc1F` [Voriconazole], with 17.5%. As to `CC1(C)S[C@@H]2[C@H](NC(=O)[C@H](N)c3ccc(O)cc3)C(=O)N2[C@H]1C(=O)O` [Amoxicillin (Amox)], the inhibition at 10 µM was -1.15%. Then `Cn1ccnc1S` [Methimazole (Tapazole, Northyx)], with 15.5%. Then `CN/C(=C\[N+](=O)[O-])NCCSCc1ccc(CN(C)C)o1` [Ranitidine (Zantac)], with 1.37%; and `OC[C@H]1OC(O)[C@H](O)[C@@H](O)[C@@H]1O` (stereo partly drawn) [Dextrose (D-glucose)], with -6.8%. With `CCN(CC)CCNC(=O)c1c(C)[nH]c(/C=C2\C(=O)Nc3ccc(F)cc32)c1C` [Sunitinib Malate (Sutent)], the inhibition at 10 µM was 1.4%. With `CC(C)[N+]1(C)[C@@H]2CC[C@H]1CC(OC(=O)C(CO)c1ccccc1)C2` (stereo partly drawn) [Ipratropium bromide], the inhibition at 10 µM was 9.81%.

For `CCOC(=O)O[C@]1(C(=O)OCCl)CC[C@H]2[C@@H]3CCC4=CC(=O)C=C[C@]4(C)[C@H]3[C@@H](O)C[C@@]21C` [Loteprednol Etabonate], the inhibition at 10 µM was 30.7%. Then `c1cc2c(cc1[C@H]1OC[C@H]3[C@@H]1CO[C@@H]3c1ccc3c(c1)OCO3)OCO2` [Sesamin (Fagarol)], with 15.7%; and `CCC(C)n1ncn(-c2ccc(N3CCN(c4ccc(OC[C@H]5CO[C@](Cn6cncn6)(c6ccc(Cl)cc6Cl)O5)cc4)CC3)cc2)c1=O` (mixture of isomers) [Itraconazole (Sporanox)], with 2.19%. Regarding `CN(C)CCc1c[nH]c2ccc(Cn3cncn3)cc12` [Rizatriptan Benzoate (Maxalt)], the inhibition at 10 µM stood at 14.3%. The value for `COc1c(N2C[C@@H]3CCCN[C@@H]3C2)c(F)cc2c(=O)c(C(=O)O)cn(C3CC3)c12` [Moxifloxacin hydrochloride] was 0.0291%; that for `Cc1cccc(C)c1OCC(=O)N[C@@H](Cc1ccccc1)[C@@H](O)C[C@H](Cc1ccccc1)NC(=O)[C@H](C(C)C)N1CCCNC1=O` [Lopinavir (ABT-378)] was 1.09%; that for `C[C@]12C=CC(=O)C=C1CC[C@@H]1[C@@H]2[C@@H](O)C[C@@]2(C)[C@H]1CC[C@]2(O)C(=O)CO` [Prednisolone (Hydroretrocortine)] was 4.33%. Consider `OC(Cn1cncn1)(Cn1cncn1)c1ccc(F)cc1F` [Fluconazole], for which the inhibition at 10 µM stood at 6.24%. Turning to `O=C1c2c(O)cc(O)cc2O[C@H](c2ccc(O)c(O)c2)[C@H]1O` [Taxifolin (Dihydroquercetin)], the inhibition at 10 µM stood at 12.2%. Then `C[C@@H]1O[C@@H](OC[C@H]2O[C@@H](Oc3c(-c4ccc(O)c(O)c4)oc4cc(O)cc(O)c4c3=O)[C@H](O)[C@@H](O)[C@@H]2O)[C@H](O)[C@H](O)[C@H]1O` [Rutin (Rutoside)], with -3.76%; and `CCc1cc(C(N)=S)ccn1` [Ethionamide], with 27.7%; and `C[C@H]1[C@H](C)CC[C@]2(C(=O)O)CC[C@]3(C)C(=CC[C@@H]4[C@@]5(C)CC[C@H](O)C(C)(C)[C@@H]5CC[C@]43C)[C@H]12` [Ursolic acid (Malol)], with 6.94%. In the case of `CCCCC1C(=O)N(c2ccccc2)N(c2ccccc2)C1=O` [Phenylbutazone (Butazolidin, Butatron)], the inhibition at 10 µM is 47.4%. Take `COc1ccc2c(c1)c(CC(=O)O)c(C)n2C(=O)c1ccc(Cl)cc1` [Indomethacin (Indocid, Indocin)]: the inhibition at 10 µM worked out at 3.41%. The value for `CN(C)CCc1c[nH]c2ccc(C[C@H]3COC(=O)N3)cc12` [Zolmitriptan (Zomig)] was 41.2%.

Regarding `CN(C)CCOC(c1ccccc1)c1ccccc1` [Diphenhydramine HCl (Benadryl)], the inhibition at 10 µM came out at 1.97%. The value for `Cc1cn([C@H]2C=C[C@@H](CO)O2)c(=O)[nH]c1=O` [Stavudine] was 6.33%; that for `CN1CCN(c2c(F)cc3c(=O)c(C(=O)O)cn(CCF)c3c2F)CC1` [Fleroxacin (Quinodis)] was -8.01%; that for `C[C@@H]1CC[C@@]2(OC1)O[C@H]1C[C@H]3[C@@H]4CC=C5C[C@@H](O[C@@H]6O[C@H](CO)[C@@H](O[C@@H]7O[C@@H](C)[C@H](O)[C@@H](O)[C@H]7O)[C@H](O)[C@H]6O[C@@H]6O[C@@H](C)[C@H](O)[C@@H](O)[C@H]6O)CC[C@]5(C)[C@H]4CC[C@]3(C)[C@H]1[C@@H]2C` [Dioscin (Collettiside III)] was 32.2%.

As to `Cc1[nH]c(=O)c(C#N)cc1-c1ccncc1` [Milrinone (Primacor)], the inhibition at 10 µM is -10.4%. The value for `CC1(C)[C@@H](O)CC[C@]2(C)[C@H]3C(=O)C=C4[C@@H]5C[C@@](C)(C(=O)O)CC[C@]5(C)CC[C@@]4(C)[C@]3(C)CC[C@@H]12` [Enoxolone (Glycyrrhetin)] was -0.00685%; that for `CCC[C@@H]1C[C@@H](C(=O)N[C@@H]([C@H]2O[C@H](SC)[C@H](O)[C@@H](O)[C@H]2O)[C@@H](C)O)N(C)C1` [Lincomycin hydrochloride (Lincocin)] was -7.87%. The value for `NCCc1ccc(O)c(O)c1` [Dopamine hydrochloride (Inotropin)] was -1.44%. Then `CC(C)NCC(O)COc1ccc(COCCOC(C)C)cc1` (stereo not drawn) [Bisoprolol], with 10%; and `Nc1nc(Cl)nc2c1ncn2[C@@H]1O[C@H](CO)[C@@H](O)[C@@H]1F` [Clofarabine], with -10.2%; and `OCc1ccc(O[C@@H]2O[C@H](CO)[C@@H](O)[C@H](O)[C@H]2O)cc1` [Gastrodin(Gastrodine)], with 3.84%. Regarding `O=c1c(O)c(-c2cc(O)c(O)c(O)c2)oc2cc(O)cc(O)c12` [Myricetin (Cannabiscetin)], the inhibition at 10 µM was -1.08%. On to `O=C1CCC[C@@H]2[C@H]3CCCN4CCC[C@@H](CN12)[C@@H]34` [Matrine ((+)-Matrine)], for which the inhibition at 10 µM was -4.08%. Then `CC(C)(C)NCC(O)c1ccc(O)c(CO)c1` (stereo not drawn) [Salbutamol sulfate (Albuterol)], with -7.52%.

For the origin of these results see paper PMC7489219 (Molecular Brain, 2020).
